Data published in ChEMBL document CHEMBL1201862, “PubChem BioAssay data set” (2004).
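Interpolation was linear, between the two tested concentrations surrounding the appropriate level; five concentrations were tested over 48 hours in 96-well plates. GI50: concentration for 50% inhibition of growth.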 Calls of active or inactive are those of the source. Rule as the data show it: active = GI50 up to about 1.1 µM and inactive = higher. Numbered stars: 1 amine (or outer) side, 2 acyl side, 3 side chain; on linkers, the order of the positions; unused ones are H or OH. Bridge positions count the residues as written; N and C are the ends. Square brackets hold non-standard residues; d marks the D form. Peptide text beside a SMILES is read from it. * marks the point of attachment. ξ: configuration not given here. X33 = O=C(C(CCCCNO[*:3])N[*:1])[*:2]; Fmoc = O=C(OCC1c2ccccc2-c2ccccc21)*; ξW = NC(Cc1c[nH]c2ccccc12)C(=O)O; ξP = O=C(O)C1CCCN1

How the values were obtained:
Assay in all cases: NCI anticancer screen, dose series, 48 h
SK-OV-3 = test system: SK-OV-3
NCI-H460 = test system: NCI-H460
CCRF-CEM = test system: CCRF-CEM
TK-10 = test system: TK-10
SW-620 = test system: SW-620
UO-31 = test system: UO-31
SK-MEL-28 = test system: SK-MEL-28
A549 = test system: A549
RXF 393 = test system: RXF 393
SNB-75 = test system: SNB-75
A498 = test system: A498
NCI-H23 = test system: NCI-H23
SF-295 = test system: SF-295
SK-MEL-5 = test system: SK-MEL-5
786-0 = test system: 786-0
Hs-578T = test system: Hs-578T
DU-145 = test system: DU-145
MDA-MB-231 = test system: MDA-MB-231
MCF7 = test system: MCF7

Measured: GI50

COc1cc2c(cc1OC)[C@@H]([C@H](O)c1ccccc1)NCC2
inactive: SK-OV-3 > 82.6 µM | NCI-H460 > 100 µM | CCRF-CEM > 100 µM | TK-10 > 100 µM | SW-620 > 100 µM | UO-31 > 92.7 µM | SK-MEL-28 > 100 µM | A549 > 100 µM | RXF 393 > 100 µM | SNB-75 55 µM | A498 > 100 µM | NCI-H23 > 100 µM | SF-295 > 100 µM | SK-MEL-5 > 100 µM | 786-0 > 100 µM

NC1=NN(c2ccccc2)C(=O)C1C(=O)CCC(=O)Nc1cccc(Cl)c1 (stereo not drawn)
inactive: SK-OV-3 > 100 µM | NCI-H460 > 100 µM | CCRF-CEM > 100 µM | TK-10 > 100 µM | SW-620 > 100 µM | UO-31 > 100 µM | SK-MEL-28 > 100 µM | A549 > 100 µM | RXF 393 > 100 µM | SNB-75 > 100 µM | A498 > 100 µM | NCI-H23 > 100 µM | SF-295 > 100 µM | SK-MEL-5 > 100 µM | 786-0 > 100 µM

O=c1cc(-c2ccccc2)nc(/C=C(\O)c2ccncc2)n1-c1ccccc1
inactive: SK-OV-3 > 100 µM | NCI-H460 > 100 µM | CCRF-CEM > 100 µM | TK-10 > 100 µM | SW-620 > 100 µM | UO-31 > 100 µM | SK-MEL-28 > 100 µM | A549 > 100 µM | RXF 393 > 100 µM | SNB-75 70.1 µM | A498 > 100 µM | NCI-H23 > 100 µM | SF-295 > 100 µM | SK-MEL-5 > 100 µM | 786-0 > 100 µM

CC(C)[C@H](COC(C)(C)C)/N=C/N1CSc2ccccc21
inactive: SK-OV-3 29 µM | NCI-H460 33 µM | CCRF-CEM 33.1 µM | TK-10 51.5 µM | SW-620 35.4 µM | UO-31 96.2 µM | SK-MEL-28 72.3 µM | A549 42 µM | RXF 393 28.7 µM | SNB-75 30.3 µM | A498 46.1 µM | NCI-H23 36.5 µM | SF-295 24.4 µM | SK-MEL-5 25.1 µM | 786-0 49.8 µM

COC(c1ccccc1)C(c1ccccc1)N1CCOCC1 (stereo not drawn)
inactive: SK-OV-3 > 100 µM | NCI-H460 > 100 µM | CCRF-CEM > 100 µM | TK-10 > 100 µM | SW-620 > 100 µM | UO-31 > 100 µM | SK-MEL-28 > 100 µM | A549 > 100 µM | RXF 393 > 100 µM | SNB-75 > 100 µM | A498 > 100 µM | NCI-H23 > 100 µM | SF-295 > 100 µM | SK-MEL-5 > 100 µM | 786-0 > 100 µM

COc1ccc(C(=O)Nc2ccc(S(=O)(=O)NCC(=O)O)cc2)cc1
inactive: SK-OV-3 > 100 µM | NCI-H460 > 100 µM | CCRF-CEM > 100 µM | TK-10 > 100 µM | SW-620 > 100 µM | UO-31 > 100 µM | SK-MEL-28 > 100 µM | A549 > 100 µM | RXF 393 > 100 µM | SNB-75 > 100 µM | A498 > 100 µM | NCI-H23 > 100 µM | SF-295 > 100 µM | SK-MEL-5 > 100 µM | 786-0 > 100 µM

O=C1Nc2cccc3cc(NCC(O)CCl)cc1c23 (stereo not drawn)
inactive: SK-OV-3 28.6 µM | Hs-578T 38 µM | NCI-H460 > 100 µM | CCRF-CEM 22.2 µM | TK-10 75.5 µM | DU-145 97.5 µM | SW-620 40.5 µM | UO-31 31.3 µM | SK-MEL-28 > 100 µM | MDA-MB-231 > 100 µM | A549 56.9 µM | RXF 393 76.9 µM | SNB-75 25.4 µM | NCI-H23 > 100 µM | SF-295 73.1 µM | MCF7 45.7 µM | SK-MEL-5 49.8 µM | 786-0 55 µM

Cc1ccc(NC(=O)NC23CC4CC(CC(F)(C4)C2)C3)cc1
inactive: SK-OV-3 > 100 µM | NCI-H460 > 100 µM | CCRF-CEM 56.4 µM | TK-10 > 100 µM | SW-620 > 100 µM | UO-31 40.1 µM | SK-MEL-28 > 100 µM | A549 > 100 µM | RXF 393 > 100 µM | SNB-75 25.2 µM | A498 > 100 µM | NCI-H23 99.3 µM | SK-MEL-5 > 100 µM | 786-0 > 100 µM

COC(=O)C(=O)C(C(=O)C(=O)Nc1ccc(C)cc1C)c1nc2ccccc2nc1O (stereo not drawn)
inactive: SK-OV-3 40.1 µM | NCI-H460 85.5 µM | CCRF-CEM 4.99 µM | TK-10 22.1 µM | SW-620 > 100 µM | UO-31 30.9 µM | SK-MEL-28 51.9 µM | A549 31.7 µM | RXF 393 17.8 µM | SNB-75 15 µM | A498 19.5 µM | NCI-H23 66.8 µM | SF-295 > 100 µM | SK-MEL-5 58.1 µM | 786-0 77.4 µM

O=C(Nn1c(-c2ccccc2)nc2ccccc2c1=O)c1ccccn1
inactive: SK-OV-3 > 100 µM | Hs-578T 27.5 µM | NCI-H460 > 100 µM | CCRF-CEM 41.5 µM | TK-10 > 100 µM | DU-145 > 100 µM | SW-620 > 100 µM | UO-31 > 100 µM | SK-MEL-28 > 100 µM | MDA-MB-231 > 100 µM | A549 > 100 µM | RXF 393 45.3 µM | SNB-75 42.1 µM | A498 15.4 µM | NCI-H23 > 100 µM | SF-295 98.9 µM | SK-MEL-5 37.7 µM | 786-0 > 100 µM

Cc1ccccc1NC(=O)/C(=N\NC(N)=S)C(C#N)c1ccccc1 (stereo not drawn)
inactive: SK-OV-3 > 100 µM | NCI-H460 > 100 µM | CCRF-CEM > 100 µM | TK-10 > 100 µM | SW-620 > 100 µM | UO-31 > 100 µM | SK-MEL-28 > 100 µM | A549 > 100 µM | RXF 393 > 100 µM | SNB-75 > 100 µM | A498 > 100 µM | NCI-H23 > 100 µM | SF-295 > 100 µM | SK-MEL-5 > 100 µM | 786-0 > 100 µM

NC(=O)CNC(=O)C1CCCN1C(=O)C1CCCCNOC(=O)CC[C@@H](NC(=O)OCC2c3ccccc3-c3ccccc32)C(=O)NC(Cc2c[nH]c3ccccc23)C(=O)N1 (stereo partly drawn) (Fmoc-[dE][ξW][X33][ξP]G-NH2; ester 1-3)
inactive: SK-OV-3 > 100 µM | Hs-578T > 100 µM | NCI-H460 > 100 µM | CCRF-CEM > 100 µM | TK-10 > 100 µM | DU-145 > 100 µM | SW-620 > 100 µM | UO-31 20.7 µM | SK-MEL-28 > 100 µM | MDA-MB-231 30.6 µM | A549 > 100 µM | RXF 393 > 100 µM | SNB-75 > 100 µM | NCI-H23 > 100 µM | SF-295 > 100 µM | MCF7 > 100 µM | SK-MEL-5 > 100 µM | 786-0 > 100 µM
